Assay results from patent publication US8329706B2, “Oxazolidinone derivatives” (Actelion Pharmaceuticals Ltd., priority 2009, dated 2012).

Assays:
human orexin-2 receptor = molecular target: T1, human orexin-2 receptor (Homo sapiens, UniProt O43614); experiment: FLIPR intracellular calcium assay, orexin receptor antagonistic activity (OX2); type: cell-based; settings: CHO cells expressing human orexin-2 receptor; agonist 3 nM orexin-A; normalized to on-plate reference; * geomean n = 5, *2 geomean n = 2
T1 construct: expressed in transfected cells; host or cells: CHO cells (G418 selection)
T1 sequence (O43614 1-444): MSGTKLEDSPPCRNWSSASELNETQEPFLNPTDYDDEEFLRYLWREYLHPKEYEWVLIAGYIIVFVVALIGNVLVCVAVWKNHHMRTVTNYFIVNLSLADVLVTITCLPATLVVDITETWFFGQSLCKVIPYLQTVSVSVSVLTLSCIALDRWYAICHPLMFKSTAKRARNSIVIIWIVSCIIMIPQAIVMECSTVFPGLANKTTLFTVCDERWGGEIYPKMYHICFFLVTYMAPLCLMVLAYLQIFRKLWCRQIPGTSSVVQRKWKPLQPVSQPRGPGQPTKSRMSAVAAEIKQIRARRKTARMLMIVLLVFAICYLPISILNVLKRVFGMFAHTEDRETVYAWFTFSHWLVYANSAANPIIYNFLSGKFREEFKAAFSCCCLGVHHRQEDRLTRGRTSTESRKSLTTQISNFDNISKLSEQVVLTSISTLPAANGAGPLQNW
Method: (§1) The orexin receptor antagonistic activity of the compounds of formula (I) is determined in accordance with the following experimental method.
(§2) Chinese hamster ovary (CHO) cells expressing the human orexin-1 receptor and the human orexin-2 receptor, respectively, are grown in culture medium (Ham F-12 with L-Glutamine) containing 300 μg/ml G418, 100 U/ml penicillin, 100 μg/ml streptomycin and 10% heat inactivated fetal calf serum (FCS). The cells are seeded at 20′000 cells/well into 384-well black clear bottom sterile plates (Greiner). The seeded plates are incubated overnight at 37° C. in 5% CO2.
(§3) Human orexin-A as an agonist is prepared as 1 mM stock solution in MeOH:water (1:1), diluted in HBSS containing 0.1% bovine serum albumin (BSA), NaHCO3: 0.375 g/l and 20 mM HEPES for use in the assay at a final concentration of 3 nM.
(§4) Antagonists are prepared as 10 mM stock solution in DMSO, then diluted in 384-well plates using DMSO followed by a transfer of the dilutions into in HBSS containing 0.1% bovine serum albumin (BSA), NaHCO3: 0.375 g/l and 20 mM HEPES. On the day of the assay, 50 μl of staining buffer (HBSS containing 1% FCS, 20 mM HEPES, NaHCO3: 0.375 g/l, 5 mM probenecid (Sigma) and 3 μM of the fluorescent calcium indicator fluo-4 AM (1 mM stock solution in DMSO, containing 10% pluronic) is added to each well. The 384-well cell-plates are incubated for 50 min at 37° C. in 5% CO2 followed by equilibration at rt for 30-120 min before measurement.
(§5) Within the Fluorescent Imaging Plate Reader (FLIPR Tetra, Molecular Devices), antagonists are added to the plate in a volume of 10 μl/well, incubated for 10 min and finally 10 μl/well of agonist is added. Fluorescence is measured for each well at 1 second intervals, and the height of each fluorescence peak is compared to the height of the fluorescence peak induced by 3 nM orexin-A with vehicle in place of antagonist. For each antagonist, the IC50 value (the concentration of compound needed to inhibit 50% of the agonistic response) is determined and normalized using the obtained IC50 value of a on-plate reference compound. Optimized conditions were achieved by adjustment of pipetting speed and cell splitting regime. The calculated IC50 values of the compounds may fluctuate depending on the daily cellular assay performance. Fluctuations of this kind are known to those skilled in the art.

human orexin-1 receptor = molecular target: T2, human orexin-1 receptor (Homo sapiens, UniProt O43613); experiment: FLIPR intracellular calcium assay, orexin receptor antagonistic activity (OX1); type: cell-based; settings: CHO cells expressing human orexin-1 receptor; agonist 3 nM orexin-A; normalized to on-plate reference; * geomean n = 5, *2 geomean n = 2
T2 construct: expressed in transfected cells; host or cells: CHO cells (G418 selection)
T2 sequence (O43613 1-425): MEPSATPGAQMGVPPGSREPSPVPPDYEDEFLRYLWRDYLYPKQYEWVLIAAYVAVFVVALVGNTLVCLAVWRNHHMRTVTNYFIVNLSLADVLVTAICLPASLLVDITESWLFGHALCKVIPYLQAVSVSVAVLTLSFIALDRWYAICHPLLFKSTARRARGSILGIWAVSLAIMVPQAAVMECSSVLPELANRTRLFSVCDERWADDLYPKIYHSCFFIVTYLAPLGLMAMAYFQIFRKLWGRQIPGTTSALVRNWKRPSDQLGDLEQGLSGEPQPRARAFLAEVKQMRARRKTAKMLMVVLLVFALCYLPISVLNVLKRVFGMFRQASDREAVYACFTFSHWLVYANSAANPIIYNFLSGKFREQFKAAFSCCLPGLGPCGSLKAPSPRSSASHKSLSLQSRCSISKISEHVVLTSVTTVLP
Method: as §1, §2, §3, §4, §5

| Compound | IC50 (human orexin-2 receptor) [nM] | IC50 (human orexin-1 receptor) [nM] |
| --- | --- | --- |
| CCOc1ccccc1C1OCC(=O)N1Cc1ccc(C)c(Cl)c1 (stereo not shown) [Example 31, 3-(3-Chloro-4-methyl-benzyl)-2-(2-ethoxy-phenyl)-oxazolidin-4-one] | 634 | 7600 |
| CCOc1ccccc1C1OCC(=O)N1Cc1ccc(Cl)cc1F (stereo not shown) [Example 19, 3-(4-Chloro-2-fluoro-benzyl)-2-(2-ethoxy-phenyl)-oxazolidin-4-one] | 586 | 9600 |
| CCOc1ccccc1C1OCC(=O)N1Cc1cc(C)ccc1C(F)(F)F (stereo not shown) [Example 28, 2-(2-Ethoxy-phenyl)-3-(5-methyl-2-trifluoromethyl-benzyl)-oxazolidin-4-one] | 661 | 8020 |
| CCOc1ccccc1C1OCC(=O)N1Cc1ccc(Cl)c(F)c1 (stereo not shown) [Example 17, 3-(4-Chloro-3-fluoro-benzyl)-2-(2-ethoxy-phenyl)-oxazolidin-4-one] | 627 | 9370 |
| CCOc1ccccc1C1OCC(=O)N1Cc1cc(C(F)(F)F)ccc1Cl (stereo not shown) [Example 12, 3-(2-Chloro-5-trifluoromethyl-benzyl)-2-(2-ethoxy-phenyl)-oxazolidin-4-one] | 590 | 4040 |
| CCOc1ccccc1C1OCC(=O)N1Cc1ccccc1F (stereo not shown) [Example 20, 2-(2-Ethoxy-phenyl)-3-(2-fluoro-benzyl)-oxazolidin-4-one] | 262 | > 10000 |
| CCOc1ccccc1C1OCC(=O)N1Cc1ccc(Cl)cc1 (stereo not shown) [Example 21, 3-(4-Chloro-benzyl)-2-(2-ethoxy-phenyl)-oxazolidin-4-one] | 696 | > 10000 |
| CCOc1ccccc1C1OCC(=O)N1Cc1ccc(F)c(C(F)(F)F)c1 (stereo not shown) [Example 14, 2-(2-Ethoxy-phenyl)-3-(4-fluoro-3-trifluoromethyl-benzyl)-oxazolidin-4-one] | 169 | > 10000 |
| CCOc1ccccc1C1OCC(=O)N1Cc1cccc(OC(F)(F)F)c1 (stereo not shown) [Example 7, 2-(2-Ethoxy-phenyl)-3-(3-trifluoromethoxy-benzyl)-oxazolidin-4-one] | 74 | 6810 |
| COc1cccc(OC)c1C1OCC(=O)N1Cc1ccc(Cl)cc1Cl (stereo not shown) [Example 42, 3-(2,4-Dichloro-benzyl)-2-(2,6-dimethoxy-phenyl)-oxazolidin-4-one] | 376 | 1490 |
| CCOc1ccccc1C1OCC(=O)N1Cc1ccccc1C (stereo not shown) [Example 2, 2-(2-Ethoxy-phenyl)-3-(2-methyl-benzyl)-oxazolidin-4-one] | 223 | > 10000 |
| CCOc1ccccc1C1OCC(=O)N1Cc1cc(Cl)ccc1Cl (stereo not shown) [Example 46, 3-(2,5-Dichloro-benzyl)-2-(2-ethoxy-phenyl)-oxazolidin-4-one] | 1520 | 788 |
| CCOc1ccccc1C1OCC(=O)N1Cc1cc(C(F)(F)F)ccc1F (stereo not shown) [Example 13, 2-(2-Ethoxy-phenyl)-3-(2-fluoro-5-trifluoromethyl-benzyl)-oxazolidin-4-one] | 290 | > 10000 |
| COc1cccc(OC)c1C1OCC(=O)N1Cc1ccc(OC(F)(F)F)cc1 (stereo not shown) [Example 34, 2-(2,6-Dimethoxy-phenyl)-3-(4-trifluoromethoxy-benzyl)-oxazolidin-4-one] | 298 | 6470 |
| CCOc1ccccc1C1OCC(=O)N1Cc1ccc(C(F)(F)F)cc1 (stereo not shown) [Example 3, 2-(2-Ethoxy-phenyl)-3-(4-trifluoromethyl-benzyl)-oxazolidin-4-one] | 230 | 9990 |
| 3-(3-Chloro-4-methyl-benzyl)-2-(2,6-dimethoxy-phenyl)-oxazolidin-4-one [Example 43] | 349 | 553 |
| CCOc1ccccc1C1OCC(=O)N1Cc1cccc(C(F)(F)F)c1 (stereo not shown) [Example 5, 2-(2-Ethoxy-phenyl)-3-(3-trifluoromethyl-benzyl)-oxazolidin-4-one] | 462 | > 10000 |
| CCOc1ccccc1C1OCC(=O)N1Cc1ccc(OC)cc1 (stereo not shown) [Example 27, 2-(2-Ethoxy-phenyl)-3-(4-methoxy-benzyl)-oxazolidin-4-one] | 353 | > 10000 |
| COc1cccc(OC)c1C1OCC(=O)N1Cc1ccc(F)c(C(F)(F)F)c1 (stereo not shown) [Example 38, 2-(2,6-Dimethoxy-phenyl)-3-(4-fluoro-3-trifluoromethyl-benzyl)-oxazolidin-4-one] | 730 | 1380 |
| COc1cccc(OC)c1C1OCC(=O)N1Cc1ccc(OC(F)(F)F)c(F)c1 (stereo not shown) [Example 48, 2-(2,6-Dimethoxy-phenyl)-3-(3-fluoro-4-trifluoromethoxy-benzyl)-oxazolidin-4-one] | 99 | 1350 |

Second part, the compound after the results:

| IC50 (human orexin-2 receptor) [nM] | IC50 (human orexin-1 receptor) [nM] | Compound |
| --- | --- | --- |
| 81 | 1710 | CCCOc1ccc(CN2C(=O)COC2c2c(OC)cccc2OC)cc1 (stereo not shown) [Example 54, 2-(2,6-Dimethoxy-phenyl)-3-(4-propoxy-benzyl)-oxazolidin-4-one] |
| 123 | 1760 | COc1cccc(OC)c1C1O[C@H](C)C(=O)N1Cc1ccc(OCC2CC2)cc1 (stereo partly drawn) [Example 75, 3-(4-Cyclopropylmethoxy-benzyl)-2-(2,6-dimethoxy-phenyl)-(R)-5-methyl-oxazolidin-4-one] |
| 1090 | 64 | COc1cccc(OC)c1C1OC(C)(C)C(=O)N1Cc1ccc(-c2ccccc2)cc1 (stereo not shown) [Example 87, 3-Biphenyl-4-ylmethyl-2-(2,6-dimethoxy-phenyl)-5,5-dimethyl-oxazolidin-4-one] |
| 160 | 29 | COc1cccc(OC)c1C1OC(C)(C)C(=O)N1Cc1ccc(OC(F)(F)F)cc1 (stereo not shown) [Example 61, 2-(2,6-Dimethoxy-phenyl)-5,5-dimethyl-3-(4-trifluoromethoxy-benzyl)-oxazolidin-4-one] |
| 150 | 80 | COc1cccc(OCCCO)c1C1OC(C)(C)C(=O)N1Cc1ccc(Oc2ccccc2)cc1 (stereo not shown) [Example 99, 2-[2-(3-Hydroxy-propoxy)-6-methoxy-phenyl]-5,5-dimethyl-3-(4-phenoxy-benzyl)-oxazolidin-4-one] |
| 151 | 5 | COc1cccc(OC)c1C1OC(C)(C)C(=O)N1Cc1ccc2ccccc2c1 (stereo not shown) [Example 57, 2-(2,6-Dimethoxy-phenyl)-5,5-dimethyl-3-naphthalen-2-ylmethyl-oxazolidin-4-one] |
| 110 | 336 | CC1(C)OC(c2c(F)cccc2F)N(Cc2ccc(OC(F)(F)F)c(Cl)c2)C1=O (stereo not shown) [Example 82, 3-(3-Chloro-4-trifluoromethoxy-benzyl)-2-(2,6-difluoro-phenyl)-5,5-dimethyl-oxazolidin-4-one] |
| 37 | 204 | COc1cccc(Cl)c1C1OC(C)(C)C(=O)N1Cc1ccc(Oc2ccccc2)cc1 (stereo not shown) [Example 85, 2-(2-Chloro-6-methoxy-phenyl)-5,5-dimethyl-3-(4-phenoxy-benzyl)-oxazolidin-4-one] |
| 193 | 114 | COc1cccc(OC)c1C1OC(C)(C)C(=O)N1Cc1ccc(OC(C)C)cc1 (stereo not shown) [Example 76, 2-(2,6-Dimethoxy-phenyl)-3-(4-isopropoxy-benzyl)-5,5-dimethyl-oxazolidin-4-one] |
